BindingDB's records for doi:10.1021/acs.jmedchem.8b00370 (Genentech, 2018)

Molecular target: Mitogen-activated protein kinase kinase kinase 12 (Homo sapiens) (UniProt Q12852)
Experiment: Inhibition of DLK (unknown origin) using myelin basic protein as substrate preincubated for 15 mins measured after 30 mins in presence of [gamma-32P]ATP by scintillation counting

Sequence of Mitogen-activated protein kinase kinase kinase 12 (Homo sapiens) (Q12852 whole entry, looked up): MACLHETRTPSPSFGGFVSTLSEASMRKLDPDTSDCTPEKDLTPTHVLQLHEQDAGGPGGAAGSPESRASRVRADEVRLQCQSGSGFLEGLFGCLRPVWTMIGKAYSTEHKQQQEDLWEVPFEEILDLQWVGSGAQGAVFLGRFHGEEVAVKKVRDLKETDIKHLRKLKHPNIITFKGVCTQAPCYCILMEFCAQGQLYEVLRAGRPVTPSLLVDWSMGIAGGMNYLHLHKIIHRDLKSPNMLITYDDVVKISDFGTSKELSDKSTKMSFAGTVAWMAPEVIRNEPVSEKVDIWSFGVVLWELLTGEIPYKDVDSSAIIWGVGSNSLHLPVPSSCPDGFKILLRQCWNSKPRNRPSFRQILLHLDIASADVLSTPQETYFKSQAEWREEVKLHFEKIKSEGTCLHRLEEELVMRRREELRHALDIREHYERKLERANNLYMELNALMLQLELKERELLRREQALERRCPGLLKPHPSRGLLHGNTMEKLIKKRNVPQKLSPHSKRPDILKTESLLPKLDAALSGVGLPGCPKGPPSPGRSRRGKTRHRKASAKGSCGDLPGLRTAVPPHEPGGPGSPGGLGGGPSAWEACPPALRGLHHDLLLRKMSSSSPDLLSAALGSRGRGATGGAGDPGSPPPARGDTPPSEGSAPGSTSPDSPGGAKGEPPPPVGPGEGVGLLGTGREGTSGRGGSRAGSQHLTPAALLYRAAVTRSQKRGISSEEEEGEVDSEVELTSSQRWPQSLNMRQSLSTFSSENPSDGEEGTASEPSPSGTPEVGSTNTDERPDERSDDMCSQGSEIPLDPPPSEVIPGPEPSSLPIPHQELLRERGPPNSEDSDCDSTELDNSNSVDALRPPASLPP

IC50: 1 nM
Compound: CC(C)n1c2ccc(Oc3ncccn3)cc2c2c3c(c4c(c21)CCc1nn(C)cc1-4)C(=O)NC3
